Laboratory results: ChEMBL document CHEMBL1128646, “The effect of Pyrrolo[3,4-c]carbazole derivatives on spinal cord ChAT activity” (Bioorg Med Chem Lett, 1995)
One block for each compound: values may come before it. Activity calls are given as the source filed them. No cut-off for these calls is given here.

Columns and labels:
[1] = biological target: T1, Choline O-acetyltransferase (Rattus norvegicus) (UniProt P32738); test: Compound was tested in vitro for choline acetyltransferase (ChAT) activity (maximal ChAT stimulation) in embryonic rat spinal cord cultures at a concentration of 1 uM; format: tissue-based
T1 sequence (whole entry): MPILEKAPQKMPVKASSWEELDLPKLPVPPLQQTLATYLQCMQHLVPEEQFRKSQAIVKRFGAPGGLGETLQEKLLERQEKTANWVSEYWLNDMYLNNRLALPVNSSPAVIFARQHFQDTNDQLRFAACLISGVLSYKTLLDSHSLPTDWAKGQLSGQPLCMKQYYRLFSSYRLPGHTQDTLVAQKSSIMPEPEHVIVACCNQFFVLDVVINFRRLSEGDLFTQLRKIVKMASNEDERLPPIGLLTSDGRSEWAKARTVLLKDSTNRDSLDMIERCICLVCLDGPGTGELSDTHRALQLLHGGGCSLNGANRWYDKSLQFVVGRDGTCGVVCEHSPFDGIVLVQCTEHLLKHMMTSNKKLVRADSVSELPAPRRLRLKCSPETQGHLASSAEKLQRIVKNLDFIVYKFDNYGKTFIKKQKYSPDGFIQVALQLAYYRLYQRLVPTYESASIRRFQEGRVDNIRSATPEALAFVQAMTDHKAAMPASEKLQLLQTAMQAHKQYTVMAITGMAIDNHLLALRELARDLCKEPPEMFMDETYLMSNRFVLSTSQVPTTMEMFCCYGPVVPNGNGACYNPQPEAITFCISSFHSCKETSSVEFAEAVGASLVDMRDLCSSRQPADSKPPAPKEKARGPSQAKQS

[2] = biological target: T1, Choline O-acetyltransferase (Rattus norvegicus); test: Compound was tested in vitro for choline acetyltransferase (ChAT) activity (maximal ChAT stimulation) in embryonic rat spinal cord cultures at a concentration of 10 uM; format: tissue-based
[3] = biological target: T1, Choline O-acetyltransferase (Rattus norvegicus); test: Compound was tested in vitro for choline acetyltransferase (ChAT) activity (maximal ChAT stimulation) in embryonic rat spinal cord cultures at a concentration of 10 uM; inactive
[4] = biological target: T1, Choline O-acetyltransferase (Rattus norvegicus); test: Compound was tested in vitro for choline acetyltransferase (ChAT) activity (maximal ChAT stimulation) in embryonic rat spinal cord cultures at a concentration of 0.300 uM; format: tissue-based
[5] = biological target: T1, Choline O-acetyltransferase (Rattus norvegicus); test: Compound was tested in vitro for choline acetyltransferase (ChAT) activity (maximal ChAT stimulation) in embryonic rat spinal cord cultures at a concentration of 10 uM; Inactive; format: tissue-based

Structure (SMILES): O=C1NCc2c1c1c3ccccc3[nH]c1c1[nH]c3ccccc3c21
Control [1]: 162%

Structure (SMILES): CC(C)(C)OC(=O)/C=C/c1ccc2[nH]c3cc(-c4ccccc4)c4c(c3c2c1)C(=O)NC4
Control [3]: inactive

Structure (SMILES): COC(=O)[C@]1(O)C[C@@H]2O[C@@]1(C)n1c3ccccc3c3c4c(c5c6ccccc6n2c5c31)C(=O)NC4
Control [4]: 186%

Structure (SMILES): O=C1NCc2c(-c3ccccc3)cc3[nH]c4ccc(/C=C/c5ccccc5)cc4c3c21
Control [3]: inactive

Second part, the compound after the results:

Control [2]: 159%
Structure (SMILES): Cn1c2ccccc2c2c3c(c(-c4ccccc4)cc21)CNC3=O

Control [3]: inactive
Structure (SMILES): O=C1NCc2c1c(-c1ccccc1)cc1[nH]c3ccccc3c21

Control [2]: 167%
Structure (SMILES): O=C1NCc2c(-c3ccccc3)cc3[nH]c4ccccc4c3c21

Control [5]: inactive
Structure (SMILES): CN1Cc2c(-c3ccccc3)cc3c(c2C1=O)c1ccccc1n3C

Control [1]: 146%
Structure (SMILES): O=C1NCc2c(-c3ccccc3)cc3[nH]c4ccc(Br)cc4c3c21
